Series [1] has as its target T1, human GLP-1 receptor (Homo sapiens, UniProt P43220).
T1 construct: host or cells: CHO-K1
In words: cAMP activity test (cAMP dynamic HTRF kit) in CHO-K1/GLP-1 receptor-expressing cells. Conditions: cAMP activity, CHO-K1/GLP-1 receptor-expressing cells; read-out: EC50. It is filed as cell-based. The procedure, abridged: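 Cells in HBSS with 0.1% BSA, 0.5 mM IBMX and 5 mM HEPES, then lysed; cAMP-d2 and anti-cAMP cryptate added for 3 h. HTRF read-out, where FRET signal is inversely proportional to intracellular cAMP.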
For orientation: TR-FRET usually uses a lanthanide donor and a delayed reading to cut background.

For series [2], the target named is T2, hERG (Homo sapiens, UniProt Q12809).
T2 construct: purchased Invitrogen PV5365
T2 sequence (Q12809 whole entry): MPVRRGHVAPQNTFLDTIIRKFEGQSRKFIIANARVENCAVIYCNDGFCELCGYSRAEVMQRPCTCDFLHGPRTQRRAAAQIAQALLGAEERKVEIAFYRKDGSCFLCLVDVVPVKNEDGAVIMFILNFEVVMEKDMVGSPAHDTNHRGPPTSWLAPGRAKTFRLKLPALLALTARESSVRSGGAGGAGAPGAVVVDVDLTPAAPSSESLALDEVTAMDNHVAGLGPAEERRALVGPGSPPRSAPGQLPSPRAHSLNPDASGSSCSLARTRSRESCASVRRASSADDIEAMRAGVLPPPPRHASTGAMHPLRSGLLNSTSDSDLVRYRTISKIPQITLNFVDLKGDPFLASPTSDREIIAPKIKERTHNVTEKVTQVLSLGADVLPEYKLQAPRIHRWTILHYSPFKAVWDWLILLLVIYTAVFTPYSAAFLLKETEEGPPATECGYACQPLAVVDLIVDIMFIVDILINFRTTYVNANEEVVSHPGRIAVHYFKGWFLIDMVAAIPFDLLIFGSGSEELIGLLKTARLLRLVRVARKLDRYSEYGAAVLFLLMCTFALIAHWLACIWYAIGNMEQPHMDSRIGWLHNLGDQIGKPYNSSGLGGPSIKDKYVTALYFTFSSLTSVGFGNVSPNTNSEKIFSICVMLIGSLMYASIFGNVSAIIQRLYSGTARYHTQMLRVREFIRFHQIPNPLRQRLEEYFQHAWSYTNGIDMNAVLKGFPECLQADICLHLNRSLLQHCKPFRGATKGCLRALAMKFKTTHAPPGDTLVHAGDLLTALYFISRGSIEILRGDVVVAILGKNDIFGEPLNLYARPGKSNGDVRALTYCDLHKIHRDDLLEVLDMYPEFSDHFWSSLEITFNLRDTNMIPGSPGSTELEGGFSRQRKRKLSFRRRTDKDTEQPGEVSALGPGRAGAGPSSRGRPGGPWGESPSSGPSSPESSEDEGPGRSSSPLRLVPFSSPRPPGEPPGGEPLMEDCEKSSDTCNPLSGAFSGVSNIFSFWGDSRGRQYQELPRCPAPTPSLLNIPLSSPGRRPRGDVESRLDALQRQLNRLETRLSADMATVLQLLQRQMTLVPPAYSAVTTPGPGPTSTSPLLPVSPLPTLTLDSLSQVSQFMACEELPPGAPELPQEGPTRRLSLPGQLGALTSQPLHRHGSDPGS
In words: hERG inhibition test (Predictor hERG Fluorescence Polarization assay kit). To be noted: probe kit Tracer (fluorescent hERG ligand), hERG % inhibition at 10 uM, relative to E-4031 and solvent control. It is filed as binding. The method, boiled down: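 Competitive fluorescence-polarization binding of fluorescent tracer to hERG membrane preparation, 2.5 h at room temperature, mP read at 531/579 nm. % inhibition at 10 uM test compound, scaled between solvent control (0%) and E-4031 (100%).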

T1 sequence (P43220 24-463): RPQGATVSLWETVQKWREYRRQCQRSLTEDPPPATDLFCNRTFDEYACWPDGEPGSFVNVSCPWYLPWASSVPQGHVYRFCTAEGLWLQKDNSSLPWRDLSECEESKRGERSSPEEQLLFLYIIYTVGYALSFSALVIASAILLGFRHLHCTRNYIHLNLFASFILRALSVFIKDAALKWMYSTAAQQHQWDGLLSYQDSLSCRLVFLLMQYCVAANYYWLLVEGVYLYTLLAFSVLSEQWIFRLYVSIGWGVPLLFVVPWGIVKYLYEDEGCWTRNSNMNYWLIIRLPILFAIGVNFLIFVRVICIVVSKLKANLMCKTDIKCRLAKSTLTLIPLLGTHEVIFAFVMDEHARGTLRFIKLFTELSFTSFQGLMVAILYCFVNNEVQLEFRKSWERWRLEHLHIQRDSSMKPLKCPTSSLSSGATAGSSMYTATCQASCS

By EC50 is commonly meant the concentration giving half of the maximal effect. One may read the inhibition as the relative decrease from the control value, in per cent. With `COCCn1c(Cc2ccc(-c3cccc(OCc4ccc(Cl)cc4F)n3)cc2[N+](=O)[O-])nc2ccc(C(=O)O)cc21` [Example 5, 2-(4-(6-(4-chloro-2-fluorobenzyloxy)pyridin-2-yl)-2-nitrobenzyl)-1-(2-methoxyethyl)-1H-benzo[d]imidazole-6-carboxylic acid], the EC50 in series [1] was 620 nM. Moreover, in series [2], the inhibition at 2.5 h, 10 µM was 2.74%.

With `O=C(O)c1ccc2nc(Cc3c(F)cc(-c4cccc(OCc5ccc(Cl)cc5F)n4)cc3F)n(CC3CCCO3)c2c1` (stereo not shown) [Example 65, 2-(4-(6-(4-chloro-2-fluorobenzyloxy)pyridin-2-yl)-2,6-difluorobenzyl)-1-((tetrahydrofuran-2-yl)methyl)-1H-benzo[d]imidazole-6-carboxylic acid], the EC50 in series [1] came out at 5 nM. For the same compound, the inhibition at 2.5 h, 10 µM in series [2] is 10.8%.

On to `COCCn1c(Cc2ccc(-c3cccc(OCc4ccc(Cl)cc4F)c3)cc2)nc2ccc(C(=O)O)cc21` [Example 22, 2-((3′-(4-chloro-2-fluorobenzyloxy)biphenyl-4-yl)methyl)-1-(2-methoxyethyl)-1H-benzo[d]imidazole-6-carboxylic acid], for which, in series [1], the EC50 was determined as 130 nM. For the same compound, the inhibition at 2.5 h, 10 µM in series [2] was -15.5%.

Regarding `COCCn1c(Cc2c(F)cc(-c3cccc(OCc4ccc(Cl)cc4F)n3)cc2F)nc2ccc(C(=O)O)cc21` [Example 37, 2-(4-(6-(4-chloro-2-fluorobenzyloxy)pyridin-2-yl)-2,6-difluorobenzyl)-1-(2-methoxyethyl)-1H-benzo[d]imidazole-6-carboxylic acid], the EC50 in series [1] was found to be 13 nM. For the same compound, the inhibition at 2.5 h, 10 µM in series [2] was -10.6%.

As for `Cc1cc(-c2cccc(OCc3ccc(C#N)cc3F)n2)ccc1Cc1nc2ccc(C(=O)O)cc2n1CC1CCCO1` (stereo not shown) [Example 68, 2-(4-(6-(4-cyano-2-fluorobenzyloxy)pyridin-2-yl)-2-methylbenzyl)-1-((tetrahydrofuran-2-yl)methyl)-1H-benzo[d]imidazole-6-carboxylic acid], the EC50 in series [1] is 29 nM. In addition, the inhibition at 2.5 h, 10 µM in series [2] was -11.4%.

In the case of `COCCn1c(Cc2ccc(-c3cccc(OCc4ccc(C#N)cc4F)n3)cc2)nc2ccc(C(=O)O)cc21` [Example 20, 2-(4-(6-(4-cyano-2-fluorobenzyloxy)pyridin-2-yl)benzyl)-1-(2-methoxyethyl)-1H-benzo[d]imidazole-6-carboxylic acid], the EC50 in series [1] was found to be 240 nM. Besides, the inhibition at 2.5 h, 10 µM in series [2] was 6.19%.

Consider `N#Cc1ccc(COc2cccc(-c3cc(F)c(Cc4nc5ccc(C(=O)O)cc5n4C[C@@H]4CCCO4)cc3F)n2)c(F)c1` [Example 120, (S)-2-(4-(6-((4-cyano-2-fluorobenzyl)oxy)pyridin-2-yl)-2,5-difluorobenzyl)-1-((tetrahydrofuran-2-yl)methyl)-1H-benzo[d]imidazole-6-carboxylic acid], for which the EC50 in series [1] is < 3.2 nM. Also, the inhibition at 2.5 h, 10 µM in series [2] is -3.82%.

In the case of `O=C(O)c1ccc2nc(Cc3ccc(-c4cccc(OCc5ccc(Cl)cc5)n4)cc3F)n(CC3CCCO3)c2c1` (stereo not shown) [Example 75, 2-(4-(6-(4-chlorobenzyloxy)pyridin-2-yl)-2-fluorobenzyl)-1-((tetrahydrofuran-2-yl)methyl)-1H-benzo[d]imidazole-6-carboxylic acid], the EC50 in series [1] was 23 nM. Besides, in series [2], the inhibition at 2.5 h, 10 µM was -7.98%.

`O=C(O)c1ccc2nc(Cn3ccc(-c4cccc(OCc5ccc(Cl)cc5F)c4)cc3=O)n(CC3CCCO3)c2c1` (stereo not shown) [Example 106, 2-((4-(3-(4-chloro-2-fluorobenzyloxy)phenyl)-2-oxopyridin-1(2H)-yl)methyl)-1-((tetrahydrofuran-2-yl)methyl)-1H-benzo[d]imidazole-6-carboxylic acid]: the EC50 in series [1] was 110 nM. Also, in series [2], the inhibition at 2.5 h, 10 µM was -2.71%.

On to `N#Cc1ccc(COc2cccc(-c3ccc(Cc4nc5ccc(C(=O)O)cc5n4CC4CCCO4)c(F)c3F)n2)c(F)c1` (stereo not shown) [Example 62, 2-(4-(6-(4-cyano-2-fluorobenzyloxy)pyridin-2-yl)-2,3-difluorobenzyl)-1-((tetrahydrofuran-2-yl)methyl)-1H-benzo[d]imidazole-6-carboxylic acid], for which the EC50 in series [1] was found to be 37 nM. Besides, in series [2], the inhibition at 2.5 h, 10 µM is -7.49%.

Regarding `O=C(O)c1ccc2nc(Cc3ccc(-c4ccc(F)c(OCc5ccc(Cl)cc5F)n4)cc3F)n(CC3CCCO3)c2c1` (stereo not shown) [Example 91, 2-(4-(6-(4-chloro-2-fluorobenzyloxy)-5-fluoropyridin-2-yl)-2-fluorobenzyl)-1-((tetrahydrofuran-2-yl)methyl)-1H-benzo[d]imidazole-6-carboxylic acid], the EC50 in series [1] came out at 7.2 nM. Moreover, the inhibition at 2.5 h, 10 µM in series [2] is -68.2%.

Regarding `N#Cc1ccc(COc2cccc(-c3ccc(Cc4nc5ccc(C(=O)O)cc5n4C[C@H]4CCCO4)c(F)c3)c2)c(F)c1` [Example 46, (R)-2-((3′-(4-cyano-2-fluorobenzyloxy)-3-fluorobiphenyl-4-yl)methyl)-1-((tetrahydrofuran-2-yl)methyl)-1H-benzo[d]imidazole-6-carboxylic acid], in series [1], the EC50 was 260 nM. Moreover, the inhibition at 2.5 h, 10 µM in series [2] is 1.04%.

Consider `N#Cc1ccc(COc2cccc(-c3ccc(Cc4nc5ccc(C(=O)O)cc5n4CC4CCCO4)cc3F)n2)c(F)c1` (stereo not shown) [Example 130, 2-(4-(6-((4-cyano-2-fluorobenzyl)oxy)pyridin-2-yl)-3-fluorobenzyl)-1-((tetrahydrofuran-2-yl)methyl)-1H-benzo[d]imidazole-6-carboxylic acid], for which the EC50 in series [1] is 21 nM. Moreover, in series [2], the inhibition at 2.5 h, 10 µM was -6.76%.

Take `COc1ccc(COc2cccc(-c3ccc(Cc4nc5ccc(C(=O)O)cc5n4C[C@@H]4CCO4)cc3F)n2)cc1` [Example 122, (S)-2-(3-fluoro-4-(6-((4-methoxybenzyl)oxy)pyridin-2-yl)benzyl)-1-(oxetan-2-ylmethyl)-1H-benzo[d]imidazole-6-carboxylic acid]: in series [1], the EC50 is 9.5 nM. In addition, the inhibition at 2.5 h, 10 µM in series [2] was -5.75%.

`N#Cc1ccc(COc2cccc(-c3ccn(Cc4nc5ccc(C(=O)O)cc5n4C[C@@H]4CCO4)c(=O)c3)n2)c(F)c1` [Example 111, (S)-2-((4-(6-(4-cyano-2-fluorobenzyloxy)pyridin-2-yl)-2-oxopyridin-1(2H)-yl)methyl)-1-(oxetan-2-ylmethyl)-1H-benzo[d]imidazole-6-carboxylic acid]: in series [1], the EC50 came to 20 nM. Further, in series [2], the inhibition at 2.5 h, 10 µM was 1.32%.

In the case of `O=C(O)c1ccc2nc(Cc3cc(F)c(-c4cccc(OCc5ccc(Cl)cc5F)n4)cc3F)n(C[C@@H]3CCO3)c2c1` [Example 86, (S)-2-(4-(6-(4-chloro-2-fluorobenzyloxy)pyridin-2-yl)-2,5-difluorobenzyl)-1-(oxetan-2-ylmethyl)-1H-benzo[d]imidazole-6-carboxylic acid], the EC50 in series [1] was < 3.2 nM. The inhibition at 2.5 h, 10 µM in series [2] is 8.93%.

`O=C(O)c1ccc2nc(Cc3c(F)cc(-c4cccc(OCc5ccc(Cl)cc5F)n4)cc3F)n(C[C@@H]3CCO3)c2c1` [Example 84, (S)-2-(4-(6-(4-chloro-2-fluorobenzyloxy)pyridin-2-yl)-2,6-difluorobenzyl)-1-(oxetan-2-ylmethyl)-1H-benzo[d]imidazole-6-carboxylic acid]: the EC50 in series [1] amounted to 4 nM. In addition, in series [2], the inhibition at 2.5 h, 10 µM was -1.15%.

As to `O=C(O)c1ccc2nc(Cc3ccc(-c4cccc(OCc5ccc(Cl)cc5F)n4)cc3F)n(Cc3cnco3)c2c1` [Example 34, 2-(4-(6-(4-chloro-2-fluorobenzyloxy)pyridin-2-yl)-2-fluorobenzyl)-1-(oxazol-5-ylmethyl)-1H-benzo[d]imidazole-6-carboxylic acid], the EC50 in series [1] was determined as 9.2 nM. In addition, the inhibition at 2.5 h, 10 µM in series [2] is -12.6%.

Turning to `O=C(O)c1ccc2nc(Cc3ccc(-c4cccc(OCc5ccc([N+](=O)[O-])cc5)n4)cc3F)n(CC3CCCO3)c2c1` (stereo not shown) [Example 88, 2-(2-fluoro-4-(6-(4-nitrobenzyloxy)pyridin-2-yl)benzyl)-1-((tetrahydrofuran-2-yl)methyl)-1H-benzo[d]imidazole-6-carboxylic acid], in series [1], the EC50 is 16 nM. Further, in series [2], the inhibition at 2.5 h, 10 µM was 22.1%.

For `O=C(O)c1ccc2nc(Cc3ccc(-c4cccc(OCc5ccc(Cl)cc5F)n4)c(F)c3)n(CCF)c2c1` [Example 55, 2-(4-(6-(4-chloro-2-fluorobenzyloxy)pyridin-2-yl)-3-fluorobenzyl)-1-(2-fluoroethyl)-1H-benzo[d]imidazole-6-carboxylic acid], the EC50 in series [1] is 210 nM. In addition, in series [2], the inhibition at 2.5 h, 10 µM is 35.4%.

Turning to `COCCn1c(Cn2ccc(-c3cccc(OCc4ccc(C#N)cc4F)c3)cc2=O)nc2ccc(C(=O)O)cc21` [Example 104, 2-((4-(3-(4-cyano-2-fluorobenzyloxy)phenyl)-2-oxopyridin-1(2H)-yl)methyl)-1-(2-methoxyethyl)-1H-benzo[d]imidazole-6-carboxylic acid], the EC50 in series [1] came out at 240 nM. For the same compound, the inhibition at 2.5 h, 10 µM in series [2] was 8.69%.

Turning to `O=C(O)c1ccc2nc(Cc3ccc(-c4ccc(F)c(OCc5ccc(Cl)cc5F)c4)c(F)c3)n(CC3CCCO3)c2c1` (stereo not shown) [Example 92, 2-((3′-(4-chloro-2-fluorobenzyloxy)-2,4′-difluorobiphenyl-4-yl)methyl)-1-((tetrahydrofuran-2-yl)methyl)-1H-benzo[d]imidazole-6-carboxylic acid], the EC50 in series [1] amounted to 78 nM. Also, the inhibition at 2.5 h, 10 µM in series [2] is 8.68%.

In the case of `N#Cc1ccc(COc2cccc(-c3ccc(Cc4nc5ccc(C(=O)O)cc5n4CCF)c(F)c3)c2)c(F)c1` [Example 57, 2-((3′-(4-cyano-2-fluorobenzyloxy)-3-fluorobiphenyl-4-yl)methyl)-1-(2-fluoroethyl)-1H-benzo[d]imidazole-6-carboxylic acid], in series [1], the EC50 came out at 850 nM. In series [2], the inhibition at 2.5 h, 10 µM was 6.42%.

Source of the values: patent US12421205B2, “GLP-1 receptor agonist” (HYUNDAI PHARM CO., LTD., priority 2019, dated 2025).
